{
  "source": "PubChem BioAssay AID328",
  "about": "(DTP/NCI, 2004)",
  "system": "BDF1 mice, P388 leukemia ip, median survival T/C",
  "experiment": "NCI In Vivo Anticancer Drug Screen. Data for tumor model P388 Leukemia (intraperitoneal) in B6D2F1 (BDF1) mice",
  "conditions": "endpoint: median survival time, higher = longer survival",
  "how_it_was_run": "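Each value expresses how treatment altered survival: treated-mouse outcome over vehicle-mouse outcome, both groups bearing the transplanted tumour.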",
  "key": {"[1]": {"conditions": "dose: 100.0 mg/kg/injection, schedule: Q04DX003 (ip), vehicle: saline"}, "[2]": {"conditions": "dose: 200.0 mg/kg/injection, schedule: Q04DX003 (ip), vehicle: saline"}, "[3]": {"conditions": "dose: 400.0 mg/kg/injection, schedule: Q04DX003 (ip), vehicle: saline"}, "[4]": {"conditions": "dose: 50.0 mg/kg/injection, schedule: Q01DX009 (ip), vehicle: saline with Tween-80"}, "[5]": {"conditions": "dose: 100.0 mg/kg/injection, schedule: Q01DX009 (ip), vehicle: saline with Tween-80"}, "[6]": {"conditions": "dose: 200.0 mg/kg/injection, schedule: Q01DX009 (ip), vehicle: saline with Tween-80"}},
  "note": "Values joined by “and” are separate entries in the source; they are usually repeats but may differ in a detail not shown here. Equal values may be shown once. Inconclusive results and toxic doses are left out.",
  "data": [
    {"smiles": "Cc1cccc(NC(=O)CCc2ccc(N3C(N)=NC(N)=NC3(C)C)cc2)c1", "values": [
      {"measurement": "T/C", "setting": "dose: 58.0 mg/kg/injection, schedule: Q01DX009 (ip), vehicle: saline with Tween-80", "value": "111 % of control"},
      {"measurement": "T/C", "setting": "dose: 88.0 mg/kg/injection, schedule: Q01DX009 (ip), vehicle: saline with Tween-80", "value": "119 % of control"},
      {"measurement": "T/C", "setting": "dose: 132.0 mg/kg/injection, schedule: Q01DX009 (ip), vehicle: saline with Tween-80", "value": "119 % of control and 122 % of control"}
    ]},
    {"smiles": "CC(C)=CCO", "values": [
      {"measurement": "T/C", "setting": "[1]", "value": "100 % of control"},
      {"measurement": "T/C", "setting": "[2]", "value": "104 % of control"},
      {"measurement": "T/C", "setting": "[3]", "value": "104 % of control"}
    ]},
    {"smiles": "CCC1CCCC1O", "note": "(stereo not given)", "values": [
      {"measurement": "T/C", "setting": "[4]", "value": "101 % of control"},
      {"measurement": "T/C", "setting": "[5]", "value": "102 % of control"},
      {"measurement": "T/C", "setting": "[6]", "value": "100 % of control"}
    ]},
    {"smiles": "CSCCC(NC(C)=O)C(=O)O", "note": "(stereo not given)", "values": [
      {"measurement": "T/C", "setting": "dose: 100.0 mg/kg/injection, schedule: Q01DX009 (ip), vehicle: saline", "value": "96 % of control"},
      {"measurement": "T/C", "setting": "[1]", "value": "87 % of control"},
      {"measurement": "T/C", "setting": "dose: 200.0 mg/kg/injection, schedule: Q01DX009 (ip), vehicle: saline", "value": "88 % of control"},
      {"measurement": "T/C", "setting": "[2]", "value": "87 % of control"},
      {"measurement": "T/C", "setting": "[3]", "value": "91 % of control"}
    ]},
    {"smiles": "NC(=S)N/N=C\\c1nccc2ccc(N)cc12", "values": [
      {"measurement": "T/C", "setting": "[4]", "value": "157 % of control"}
    ]},
    {"smiles": "CN=S(=O)(OCCCCOS(=O)(=NC)c1ccc(C)cc1)c1ccc(C)cc1", "note": "(stereo not given)", "values": [
      {"measurement": "T/C", "setting": "dose: 400.0 mg/kg/injection, schedule: Q04DX003 (ip), vehicle: saline with Tween-80", "value": "152 % of control"}
    ]},
    {"smiles": "CC(=O)SCCC(=O)O", "values": [
      {"measurement": "T/C", "setting": "dose: 6.25 mg/kg/injection, schedule: Q01DX009 (ip), vehicle: saline with Tween-80", "value": "109 % of control"},
      {"measurement": "T/C", "setting": "dose: 6.25 mg/kg/injection, schedule: Q04DX003 (ip), vehicle: saline with Tween-80", "value": "100 % of control"},
      {"measurement": "T/C", "setting": "dose: 12.5 mg/kg/injection, schedule: Q01DX009 (ip), vehicle: saline with Tween-80", "value": "100 % of control"},
      {"measurement": "T/C", "setting": "dose: 12.5 mg/kg/injection, schedule: Q04DX003 (ip), vehicle: saline with Tween-80", "value": "95 % of control"},
      {"measurement": "T/C", "setting": "dose: 25.0 mg/kg/injection, schedule: Q01DX009 (ip), vehicle: saline with Tween-80", "value": "109 % of control"},
      {"measurement": "T/C", "setting": "dose: 25.0 mg/kg/injection, schedule: Q04DX003 (ip), vehicle: saline with Tween-80", "value": "100 % of control"}
    ]},
    {"smiles": "COC(=O)/C(=C/c1ccccc1)c1ccccc1", "values": [
      {"measurement": "T/C", "setting": "[4]", "value": "101 % of control"},
      {"measurement": "T/C", "setting": "[5]", "value": "99 % of control"},
      {"measurement": "T/C", "setting": "[6]", "value": "96 % of control"}
    ]},
    {"smiles": "CC1CCS(=O)(=O)CC1.[Cl][Hg][Cl]", "values": [
      {"measurement": "T/C", "setting": "dose: 0.3 mg/kg/injection, schedule: Q01DX009 (ip), vehicle: saline", "value": "95 % of control"},
      {"measurement": "T/C", "setting": "dose: 0.6 mg/kg/injection, schedule: Q01DX009 (ip), vehicle: saline", "value": "100 % of control"},
      {"measurement": "T/C", "setting": "dose: 1.2 mg/kg/injection, schedule: Q01DX009 (ip), vehicle: saline", "value": "95 % of control"}
    ]},
    {"smiles": "CN1c2ccc(Cl)cc2C(=O)NC1c1ccc([N+](=O)[O-])s1", "note": "(stereo not given)", "values": [
      {"measurement": "T/C", "setting": "[4]", "value": "98 % of control and 110 % of control"},
      {"measurement": "T/C", "setting": "[5]", "value": "104 % of control and 113 % of control"},
      {"measurement": "T/C", "setting": "[6]", "value": "112 % of control"}
    ]},
    {"smiles": "Clc1ccc(Oc2ccc(N3C=Nc4ccc(Oc5ccc(Cl)cc5)cc4C3)cc2)cc1", "values": [
      {"measurement": "T/C", "setting": "dose: 100.0 mg/kg/injection, schedule: Q04DX003 (ip), vehicle: alcohol", "value": "100 % of control"},
      {"measurement": "T/C", "setting": "dose: 200.0 mg/kg/injection, schedule: Q04DX003 (ip), vehicle: alcohol", "value": "100 % of control"},
      {"measurement": "T/C", "setting": "dose: 400.0 mg/kg/injection, schedule: Q04DX003 (ip), vehicle: alcohol", "value": "95 % of control"}
    ]},
    {"smiles": "CC(=O)[C@@]1(O)CC[C@H]2[C@@H]3C[C@H](C)C4=CC(=O)C=C[C@]4(C)[C@@]3(F)[C@@H](O)C[C@@]21C", "values": [
      {"measurement": "T/C", "setting": "dose: 5.0 mg/kg/injection, schedule: Q01DX010 (sc), vehicle: steriod suspending solution", "value": "109 % of control"},
      {"measurement": "T/C", "setting": "dose: 10.0 mg/kg/injection, schedule: Q01DX010 (sc), vehicle: steriod suspending solution", "value": "109 % of control"},
      {"measurement": "T/C", "setting": "dose: 20.0 mg/kg/injection, schedule: Q01DX010 (sc), vehicle: steriod suspending solution", "value": "118 % of control"},
      {"measurement": "T/C", "setting": "dose: 80.0 mg/kg/injection, schedule: Q01DX010 (sc), vehicle: steriod suspending solution", "value": "118 % of control"},
      {"measurement": "T/C", "setting": "dose: 320.0 mg/kg/injection, schedule: Q01DX010 (sc), vehicle: steriod suspending solution", "value": "95 % of control and 112 % of control"},
      {"measurement": "T/C", "setting": "dose: 640.0 mg/kg/injection, schedule: Q01DX010 (sc), vehicle: steriod suspending solution", "value": "112 % of control"}
    ]}
  ]
}
